This is an account of results in ChEMBL document CHEMBL1137405, “Structural basis for the structure-activity relationships of peroxisome proliferator-activated receptor agonists” (J Med Chem, 2006).

Bounds are passed on as bounds.

In general, EC50 refers to the midpoint of the concentration-response curve. Low readings indicate higher potency in that assay, high ones lower potency in that assay.

One experiment concerns the target T1, Peroxisome proliferator-activated receptor alpha (Homo sapiens) (UniProt Q07869).
T1 sequence (whole entry): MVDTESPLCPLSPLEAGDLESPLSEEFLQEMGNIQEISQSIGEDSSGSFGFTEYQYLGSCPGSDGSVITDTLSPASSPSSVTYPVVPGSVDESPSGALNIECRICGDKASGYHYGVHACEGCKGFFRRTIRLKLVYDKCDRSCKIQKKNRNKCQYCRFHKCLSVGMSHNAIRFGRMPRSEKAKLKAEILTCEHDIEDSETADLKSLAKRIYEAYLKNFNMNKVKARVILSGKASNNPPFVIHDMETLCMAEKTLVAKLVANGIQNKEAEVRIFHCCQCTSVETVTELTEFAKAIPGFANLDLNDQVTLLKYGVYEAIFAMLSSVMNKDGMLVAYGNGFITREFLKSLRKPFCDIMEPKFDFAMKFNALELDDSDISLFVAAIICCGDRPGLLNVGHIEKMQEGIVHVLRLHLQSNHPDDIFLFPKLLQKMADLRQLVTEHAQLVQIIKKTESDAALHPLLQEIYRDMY
Nature of the experiment: (§1) Activity at human PPAR alpha in Huh7 cells by transactivation assay. Type of experiment: cell-based. The following applies: Huh-7, filed as agonist.
Regarding `CCCc1c(OCCCn2ccc3cc(OCC(=O)O)ccc32)ccc2cc(C(=O)c3ccccc3)ccc12`, the Activity entry was “Agonist”.
As to `CCCc1c(OCCCOc2ccc3c(ccn3CC(=O)O)c2)ccc2cc(C(=O)c3ccccc3)ccc12`, the Activity result was “Agonist”.
As to `CCCc1c(OCCCn2ccc3cc(OC(C)(C)C(=O)O)ccc32)ccc2cc(C(=O)c3ccccc3)ccc12`, the Activity result is “Agonist”.
On the same count and under the same terms, for `CCCc1c(OCCCn2ccc3c(OC(C)(C)C(=O)O)cccc32)ccc2cc(C(=O)c3ccccc3)ccc12` the value was “Agonist”.

The next experiment concerns the target T2, Peroxisome proliferator-activated receptor alpha (Homo sapiens, UniProt Q07869).
T2 sequence (Q07869 whole entry): T1 sequence (whole entry)
The experiment is described as §1. The format is cell-based, Huh-7.
Conditions: not given
`CCCc1c(OCCCn2ccc3cc(OCC(=O)O)ccc32)ccc2cc(C(=O)c3ccccc3)ccc12` returned an EC50 of 0.032 µM.
Regarding `CCCc1c(OCCCn2ccc3ccc(OCC(=O)O)cc32)ccc2cc(C(=O)c3ccccc3)ccc12`, the EC50 was 2.08 µM. Against the preceding compound, the EC50 is about 65-fold higher.
Still for that read-out and setting: for `CCCc1c(OCCCn2ccc3c(OCC(=O)O)cccc32)ccc2cc(C(=O)c3ccccc3)ccc12` the value was 0.206 µM; for `CCCc1c(OCCCn2ccc3cc(OC(C)(C)C(=O)O)ccc32)ccc2cc(C(=O)c3ccccc3)ccc12`, 0.123 µM.
On the same count and under the same terms, the figure for `CCCc1c(OCCCn2ccc3c(OC(C)(C)C(=O)O)cccc32)ccc2cc(C(=O)c3ccccc3)ccc12` is 0.282 µM.
As to `CCCc1c(OCCCn2ccc3ccc(OC(C)(C)C(=O)O)cc32)ccc2cc(C(=O)c3ccccc3)ccc12`, the EC50 came to 1.1 µM.

The target in another experiment is T3, Peroxisome proliferator-activated receptor delta (Homo sapiens, UniProt Q03181).
T3 sequence (Q03181 whole entry): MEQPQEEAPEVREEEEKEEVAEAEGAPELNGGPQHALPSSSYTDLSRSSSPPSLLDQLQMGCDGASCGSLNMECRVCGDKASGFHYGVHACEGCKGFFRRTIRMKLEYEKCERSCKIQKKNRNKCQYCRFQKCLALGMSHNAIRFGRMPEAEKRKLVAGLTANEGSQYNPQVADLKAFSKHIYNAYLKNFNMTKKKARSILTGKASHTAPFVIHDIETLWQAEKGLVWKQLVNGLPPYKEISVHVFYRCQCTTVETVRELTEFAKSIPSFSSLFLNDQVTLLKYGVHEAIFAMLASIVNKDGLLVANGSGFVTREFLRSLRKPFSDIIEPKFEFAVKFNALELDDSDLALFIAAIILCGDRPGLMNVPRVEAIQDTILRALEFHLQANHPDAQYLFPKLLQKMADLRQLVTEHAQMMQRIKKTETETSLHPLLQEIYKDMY
Nature of the experiment: Activity at human PPAR delta in Huh7 cells by transactivation assay. Type of experiment: cell-based, Huh-7.
Conditions: not given
`CCCc1c(OCCCn2ccc3cc(OCC(=O)O)ccc32)ccc2cc(C(=O)c3ccccc3)ccc12`: the concentration for a half-maximal effect (EC50) is > 10 µM.
For the compound `CCCc1c(OCCCn2ccc3ccc(OCC(=O)O)cc32)ccc2cc(C(=O)c3ccccc3)ccc12`, the midpoint of the response, the EC50, lay at 6.98 µM.
Turning to `CCCc1c(OCCCn2ccc3c(OCC(=O)O)cccc32)ccc2cc(C(=O)c3ccccc3)ccc12`, the EC50 is > 10 µM.
On the same count and under the same terms, the figure for `CCCc1c(OCCCn2ccc3cc(OC(C)(C)C(=O)O)ccc32)ccc2cc(C(=O)c3ccccc3)ccc12` is > 10 µM.
Turning to `CCCc1c(OCCCn2ccc3c(OC(C)(C)C(=O)O)cccc32)ccc2cc(C(=O)c3ccccc3)ccc12`, the EC50 stood at 4.3 µM.
`CCCc1c(OCCCn2ccc3ccc(OC(C)(C)C(=O)O)cc32)ccc2cc(C(=O)c3ccccc3)ccc12`: the 50% effective concentration (EC50) came to 4.63 µM.

For the next experiment, the target named is T4, Peroxisome proliferator-activated receptor gamma (Homo sapiens, UniProt P37231).
T4 sequence (P37231 whole entry): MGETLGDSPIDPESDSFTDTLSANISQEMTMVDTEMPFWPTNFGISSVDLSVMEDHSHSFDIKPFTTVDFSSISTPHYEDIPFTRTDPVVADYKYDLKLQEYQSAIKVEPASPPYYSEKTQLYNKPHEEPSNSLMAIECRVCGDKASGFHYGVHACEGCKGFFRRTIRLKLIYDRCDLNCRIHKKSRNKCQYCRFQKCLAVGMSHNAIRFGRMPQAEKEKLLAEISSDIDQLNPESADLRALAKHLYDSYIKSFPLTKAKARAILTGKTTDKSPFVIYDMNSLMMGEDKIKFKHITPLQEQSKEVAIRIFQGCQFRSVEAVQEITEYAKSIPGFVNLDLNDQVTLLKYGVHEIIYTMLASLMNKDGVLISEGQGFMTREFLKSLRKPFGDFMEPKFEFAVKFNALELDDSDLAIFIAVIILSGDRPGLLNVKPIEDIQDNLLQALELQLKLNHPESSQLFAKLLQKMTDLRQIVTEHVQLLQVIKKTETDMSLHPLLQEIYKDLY
Type of experiment: cell-based, Huh-7.
Conditions: not given
Turning to `CCCc1c(OCCCn2ccc3cc(OCC(=O)O)ccc32)ccc2cc(C(=O)c3ccccc3)ccc12`, the response was half-maximal at 2.21 µM (EC50).
The same measure, in the same setting: for `CCCc1c(OCCCn2ccc3ccc(OCC(=O)O)cc32)ccc2cc(C(=O)c3ccccc3)ccc12` the value was 3.47 µM; for `CCCc1c(OCCCn2ccc3c(OCC(=O)O)cccc32)ccc2cc(C(=O)c3ccccc3)ccc12`, 4.22 µM.
The compound `CCCc1c(OCCCn2ccc3cc(OC(C)(C)C(=O)O)ccc32)ccc2cc(C(=O)c3ccccc3)ccc12` returned an EC50 of 0.65 µM.
Consider `CCCc1c(OCCCn2ccc3c(OC(C)(C)C(=O)O)cccc32)ccc2cc(C(=O)c3ccccc3)ccc12`, for which it took 0.21 µM to reach a half-maximal effect (EC50).
As for `CCCc1c(OCCCn2ccc3ccc(OC(C)(C)C(=O)O)cc32)ccc2cc(C(=O)c3ccccc3)ccc12`, the EC50 came to 0.47 µM.
